According to patent US20230013402A1, “REGENERATING FUNCTIONS AND PHENOTYPES OF CONNECTIVE TISSUE THROUGH NPAS2 SUPPRESSION” (The Regents of the University of California, priority 2019, published 2023):
Structures can show the parent of a compound that is named as a salt. Where two headings read alike, the source gives them in different places.

Tests used:
[1] = tested on: human skin fibroblasts; test: High-throughput cell migration assay (Oris Pro Cell Migration Assay plate) / standardized viability; format: cell-based
Description: (§1) Mouse MSC carrying Npas2-LacZ reporter gene, as described by Hassan N, et al., PLoS One. 2017; 12(8):e0183359, which is incorporated by reference herein in its entirety, was immortalized using SV40 in order to accommodate a large-scale HTS. […] This cell system was used to screen FDA Approved Drug Library (1120 compounds). The same library was also screened for cell viability by Calcein AM Hoechst 33342 staining Cell migration assays using the Oris™ Pro Cell Migration Assay plate, as described by Joy M E et al., PloS one. 2014; 9(2):e88350, which is incorporated by reference herein in its entirety, was used for a high-throughput migration assay using human skin fibroblasts
(§2) The combined Z score was used to identify hit compounds (Table 1).

[2] = tested on: Npas2-LacZ reporter gene (Npas2 expression); test: High throughput screening of FDA Approved Drug Library for Npas2-LacZ reporter expression; format: cell-based, mouse
Description: as §1, §2

[3] = tested on: fibroblasts; details: in vitro, compared to vehicle; cited from earlier work
[4] = tested on: Npas2-LacZ expression; test: High throughput screening of LOPAC1280 for Npas2-LacZ expression of mouse BMSC; format: cell-based; parameters: concentration or dose not given beside the values; details: Activity against negative controls in LOPAC screening; Npas2 downregulation
Description: FIGS. 13A-13C show an unbiased chemical genetics analysis was used to determine the molecular mechanisms underlying implant osseointegration. […] Hit compounds were identified as z-score >2.5 or <−2.5.
Femur BMSC derived from Npas2−/− mouse was previously characterized for the expression of LacZ, as described by Hassan, N., et al., (2017) Titanium biomaterials with complex surfaces induced aberrant peripheral circadian rhythms in bone marrow mesenchymal stromal cells. PLoS One 12, e0183359, which is incorporated by reference herein in its entirety, which was used for high throughput screening of LOPAC 1280 (FIG. 13A). […] The validation study identified a total of 14 compounds (FIG. 13C), which were subjected to the chemical genetics analysis. […] By contrast, Npas2 down regulating compounds stimulate or accumulate cAMP, or induce cAMP response element binding (CREB) activation (Table 3).

[5] = Table 2, additional Npas2 expression suppressors
[6] = Table 1, HTS of FDA Drug Library
[7] = Table 1, combined Z score (product)

| Compound | Migration (standardized viability) Z Score [1, 5] | NPAS2 Z Score [2, 5] | other results |
| --- | --- | --- | --- |
| Clc1ccc(COC(Cn2ccnc2)c2ccc(Cl)cc2Cl)cc1 (stereo not drawn) [Econazole nitrate] | 0.805 | −2.41 | – |
| C[C@@H]1C[C@@H]([C@H](O)CC2CC(=O)NC(=O)C2)C(=O)[C@@H](C)C1 [Cycloheximide] | −4.91 | −3.29 | – |
| NCCc1c[nH]c2ccc(O)cc12 [serotonin] | – | – | Width of scratch zone [3]: reduced |
| C[C@H]1CCC/C=C/[C@@H]2C[C@H](O)C[C@H]2[C@H](O)/C=C/C(=O)O1 [Down01, Brefeldin A] | – | – | % Activity [4]: −45.4% |
| Cn1cnc2c1c(=O)[nH]c(=O)n2C [Theobromine] | −0.6 | −2.04 | – |
| CN1[C@@H]2CC[C@H]1CC(OC(=O)C(CO)c1ccccc1)C2.CN1[C@@H]2CC[C@H]1CC(OC(=O)C(CO)c1ccccc1)C2.O.O=S(=O)(O)O (stereo partly drawn) [Atropine sulfate monohydrate] | – | −2.04 | NpasZ × ViabilityZ ([2]; Table 2, combined Z score (product)): −0.3692 |
| C/C=C(/C)C(=O)O[C@H]1C(C)=C2[C@H]([C@@H]1OC(=O)CCCCCCC)[C@@](C)(OC(C)=O)C[C@H](OC(=O)CCC)[C@@]1(O)[C@H]2OC(=O)[C@@]1(C)O [Down12, THAPSIGARGIN] | – | – | % Activity [4]: −43.5% |
| CNCC[C@@H](Oc1ccccc1C)c1ccccc1 [SAM001246626, Atomoxetine hydrochloride] | −0.749 | −2.6 | – |
| O=C(O)c1cccnc1Nc1cccc(C(F)(F)F)c1 [Niflumic Acid, Niflumic acid] | – | – | Migration (standardized viability) Z Score [1, 6]: 1.79; NPAS2 Z Score [2, 6]: −1.99; NPAS Z × ViabilityZ [2, 7]: −3.56 |
| CCc1c(C)[nH]c2c1C(=O)C(CN1CCOCC1)CC2.Cl (stereo not drawn) [Molindone hydrochloride] | – | – | Migration (standardized viability) Z Score [1, 6]: 1.22; NPAS2 Z Score [2, 6]: −2.1; NPAS Z × ViabilityZ [2, 7]: −2.56 |
| S=c1nc[nH]c2nc[nH]c12 [MS-1500387, Mercaptopurine] | 0.577 | −2.08 | – |
| CCN(CC)CCOc1ccc(Nc2ncc3cc(-c4c(Cl)cccc4Cl)c(=O)n(C)c3n2)cc1 [Down13, PD-166285 hydrate] | – | – | % Activity [4]: −35.5% |
| CC(C)NC[C@H](O)COc1ccc(CC(N)=O)cc1 [(S)-(-)-Atenolol, (S)-(−)-Atenolol] | – | – | NPAS2 Z Score [2]: −2 |
| O=[N+]([O-])O[C@@H]1CO[C@H]2[C@@H]1OC[C@@H]2O [Isosorbide mononitrate] | 0.647 | −2.01 | – |
| c1ccc2c(c1)[I+]c1ccccc1-2 [Down08, Diphenyleneiodonium chloride] | – | – | % Activity [4]: −18.6% |
| COc1cc([C@@H]2c3cc4c(cc3[C@H](O)[C@H]3COC(=O)[C@H]23)OCO4)cc(OC)c1OC [Down10, Podophyllotoxin] | – | – | % Activity [4]: −15.6% |
| Cn1c(=O)c(-c2c(Cl)cccc2Cl)cc2cnc(Nc3ccc(N4CCOCC4)cc3)nc21 [Down14, PD-173952] | – | – | % Activity [4]: −33.0% |
| CCCCCC[C@H]1C(=O)O[C@H](C)[C@H](NC(=O)c2cccc(NC=O)c2O)C(=O)O[C@@H](C)[C@@H]1OC(=O)CC(C)C (stereo in doubt) [Antimycin A] | – | – | Migration (standardized viability) Z Score [1, 6]: 2.13; NPAS2 Z Score [2, 6]: −2.72; NPAS Z × ViabilityZ [2, 7]: −5.79 |
| CCN(CC)CCNC(=O)COc1ccc(OC)cc1.Cl [Mefexamide hydrochloride, mefexamide hydrochloride] | – | – | Migration (standardized viability) Z Score [1, 6]: 1.12; NPAS2 Z Score [2, 6]: −2.06; NPAS Z × ViabilityZ [2, 7]: −2.31 |
| CC(=O)OC1CN2CCC1CC2.Cl (stereo not drawn) [Aceclidine Hydrochloride] | 0.198 | −2.2 | – |

| Compound | Migration (standardized viability) Z Score [1, 5] | NPAS2 Z Score [2, 5] | other results |
| --- | --- | --- | --- |
| COc1cc2c(c(OC)c1OC)-c1ccc(OC)c(=O)cc1[C@@H](NC(C)=O)CC2 [Down03, Colchicine] | – | – | % Activity [4]: −29.7% |
| Cc1c(NC(=O)c2cccnc2)c(=O)n(-c2ccccc2)n1C [Nifenazone] | −0.243 | −2.41 | – |
| OCC(O)CN1CCN(c2ccccc2)CC1 (racemic) [Dropropizine (R,S)] | −1.21 | −2.27 | – |
| CCN(CC)C(=O)N1CCN(C)CC1.O=C(O)CC(O)(CC(=O)O)C(=O)O [Diethylcarbamazine citrate] | −2.08 | −2.36 | – |
| CC[C@H](C)C(=O)O[C@H]1C[C@H](O)C=C2C=C[C@H](C)[C@H](CC[C@@H](O)C[C@@H](O)CC(=O)O)[C@H]21 [Pravastatin] | 0.64 | −2.16 | – |
| CC[n+]1c(/C=C/C=C2/N(C)c3ccccc3C2(C)C)sc2ccccc21.[I-] [Down06, AC-93253 iodide] | – | – | % Activity [4]: −25.1% |
| NC(=O)OCC(O)COc1ccc(Cl)cc1 (stereo not drawn) [Chlorphensin carbamate] | −0.157 | −2.36 | – |
| O=C(N/N=C/c1ccc([N+](=O)[O-])o1)c1ccc(O)cc1 [Nifuroxazide] | −0.402 | −3.43 | – |
| O=C(O)COC(=O)Cc1ccccc1Nc1c(Cl)cccc1Cl [Aceclofenac] | 0.666 | −2.16 | – |
| COc1cccc2c1C(=O)c1c(O)c3c(c(O)c1C2=O)C[C@@](O)(C(C)=O)C[C@@H]3O[C@H]1CC(N)[C@H](O)C(C)O1.Cl (stereo partly drawn) [Daunorubicin hydrochloride] | −4.56 | −2.45 | – |
| Tyloxapol | – | – | Migration (standardized viability) Z Score [1]: 0.572; NPAS2 Z Score [2]: −2.39; NpasZ × ViabilityZ [2]: −1.367 |
| CN(Cc1ccc(C(C)(C)C)cc1)Cc1cccc2ccccc12.Cl [Butenafine Hydrochloride] | 0.239 | −2.02 | – |
| Cl.NCc1ccc(S(N)(=O)=O)cc1 [Mafenide hydrochloride] | −0.188 | −2.8 | – |
| CCOC(=O)[C@H](CCc1ccccc1)N[C@@H](C)C(=O)N1CCC[C@H]1C(=O)O [MS-1501214, enalapril maleate] | −1.53 | −3.22 | – |
| CC[C@@]1([C@@H]2OC(C3O[C@@](O)(CO)[C@H](C)C[C@@H]3C)C[C@@H]2C)CC[C@H]([C@]2(C)CC[C@@]3(C[C@H](O)[C@@H](C)C([C@@H](C)[C@@H](OC)[C@H](C)C(=O)O)O3)O2)O1 (stereo partly drawn) [Monensin sodium salt] | −8.13 | −4.34 | – |
| CN1C(=O)OC(C)(C)C1=O [Trimethadione] | −0.105 | −2.74 | – |
| O=C(OC1C[C@@H]2CC3C[C@H](C1)N2CC3=O)c1c[nH]c2ccccc12 (stereo partly drawn) [Dolasetron mesilate] | −1.91 | −2.64 | – |
| C[C@]12C=CC(=O)C=C1CC[C@@H]1[C@@H]2[C@@H](O)C[C@@]2(C)[C@H]1CC[C@]2(O)C(=O)CO [Prednisolone] | −2.31 | −2.42 | – |
| CCCNC(C)C(=O)Nc1c(C)csc1C(=O)OC.Cl (stereo not drawn) [Articaine hydrochloride] | −0.466 | −2.02 | – |
| C[C@]12CC[C@@H]3c4ccc(O)cc4CC[C@H]3[C@@H]1CCC2=O [Estrone] | −2.56 | −2.01 | – |
